These results are taken from patent US20250120967A1, “TYROSINE KINASES INHIBITORS AND USES THEREOF” (GREAT NOVEL THERAPEUTICS BIOTECH & MEDICALS CORPORATION, priority 2023, published 2025).

Common to all, as to assay: Tyrosine kinase inhibition assay
Format in all cases: biochemical

In experiment [1] the target is T1, TXK (Homo sapiens, UniProt P42681).
T1 sequence (P42681 1-527): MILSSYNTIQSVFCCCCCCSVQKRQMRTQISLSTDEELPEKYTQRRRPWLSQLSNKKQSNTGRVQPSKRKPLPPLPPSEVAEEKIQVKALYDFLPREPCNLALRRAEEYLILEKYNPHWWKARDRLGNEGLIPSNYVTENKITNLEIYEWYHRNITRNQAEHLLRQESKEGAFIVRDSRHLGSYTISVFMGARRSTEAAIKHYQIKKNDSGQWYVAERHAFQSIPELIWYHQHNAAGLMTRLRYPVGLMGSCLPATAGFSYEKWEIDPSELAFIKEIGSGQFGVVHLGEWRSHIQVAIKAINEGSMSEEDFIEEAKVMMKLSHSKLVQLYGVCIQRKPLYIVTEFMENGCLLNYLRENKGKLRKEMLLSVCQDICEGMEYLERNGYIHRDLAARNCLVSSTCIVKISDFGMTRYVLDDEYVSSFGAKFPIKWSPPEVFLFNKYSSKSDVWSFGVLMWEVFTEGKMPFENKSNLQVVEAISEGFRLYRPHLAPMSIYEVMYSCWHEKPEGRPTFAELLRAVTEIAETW
To be noted: single concentration 1.0 μM, read-out: percent inhibition. An outline of the steps: (§1)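 Percent inhibition from a one-concentration (1.0 μM) Z′-LYTE biochemical screen at apparent-Km ATP; >80% scored as a hit.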

The target in experiment [2] is BRAF V599E (Homo sapiens, UniProt P15056, V600E). Conditions: single concentration 1.0 μM, read-out: percent inhibition. An outline of the steps:
as §1

Experiment [3] addresses PIK3C2A (PI3K-C2 alpha) (Homo sapiens, UniProt O00443). Conditions: single concentration 1.0 μM, read-out: percent inhibition. In short, it runs like this:
as §1

The target of experiment [4] is T2, AURKA (Aurora A) (Homo sapiens, UniProt O14965).
T2 sequence (O14965 1-403): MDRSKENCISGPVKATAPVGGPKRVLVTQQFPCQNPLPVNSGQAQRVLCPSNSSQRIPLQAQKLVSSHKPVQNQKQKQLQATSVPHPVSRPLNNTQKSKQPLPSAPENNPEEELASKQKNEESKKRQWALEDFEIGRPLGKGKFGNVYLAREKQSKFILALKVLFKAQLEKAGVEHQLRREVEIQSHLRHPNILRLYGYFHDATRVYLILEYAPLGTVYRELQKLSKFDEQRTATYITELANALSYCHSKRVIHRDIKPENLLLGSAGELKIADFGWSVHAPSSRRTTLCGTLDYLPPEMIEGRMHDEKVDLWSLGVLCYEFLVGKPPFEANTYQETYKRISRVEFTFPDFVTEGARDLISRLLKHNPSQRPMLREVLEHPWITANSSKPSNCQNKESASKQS
To be noted: single concentration 1.0 μM, read-out: percent inhibition. In short, it runs like this:
as §1

The target of experiment [5] is RAF1 (cRAF) Y340D Y341D (Homo sapiens, UniProt P04049, Y340D/Y341D). To be noted: single concentration 1.0 μM, read-out: percent inhibition. In short, it runs like this:
as §1

The target in experiment [6] is T3, EPHB3 (Homo sapiens, UniProt P54753).
T3 sequence (P54753 34-998): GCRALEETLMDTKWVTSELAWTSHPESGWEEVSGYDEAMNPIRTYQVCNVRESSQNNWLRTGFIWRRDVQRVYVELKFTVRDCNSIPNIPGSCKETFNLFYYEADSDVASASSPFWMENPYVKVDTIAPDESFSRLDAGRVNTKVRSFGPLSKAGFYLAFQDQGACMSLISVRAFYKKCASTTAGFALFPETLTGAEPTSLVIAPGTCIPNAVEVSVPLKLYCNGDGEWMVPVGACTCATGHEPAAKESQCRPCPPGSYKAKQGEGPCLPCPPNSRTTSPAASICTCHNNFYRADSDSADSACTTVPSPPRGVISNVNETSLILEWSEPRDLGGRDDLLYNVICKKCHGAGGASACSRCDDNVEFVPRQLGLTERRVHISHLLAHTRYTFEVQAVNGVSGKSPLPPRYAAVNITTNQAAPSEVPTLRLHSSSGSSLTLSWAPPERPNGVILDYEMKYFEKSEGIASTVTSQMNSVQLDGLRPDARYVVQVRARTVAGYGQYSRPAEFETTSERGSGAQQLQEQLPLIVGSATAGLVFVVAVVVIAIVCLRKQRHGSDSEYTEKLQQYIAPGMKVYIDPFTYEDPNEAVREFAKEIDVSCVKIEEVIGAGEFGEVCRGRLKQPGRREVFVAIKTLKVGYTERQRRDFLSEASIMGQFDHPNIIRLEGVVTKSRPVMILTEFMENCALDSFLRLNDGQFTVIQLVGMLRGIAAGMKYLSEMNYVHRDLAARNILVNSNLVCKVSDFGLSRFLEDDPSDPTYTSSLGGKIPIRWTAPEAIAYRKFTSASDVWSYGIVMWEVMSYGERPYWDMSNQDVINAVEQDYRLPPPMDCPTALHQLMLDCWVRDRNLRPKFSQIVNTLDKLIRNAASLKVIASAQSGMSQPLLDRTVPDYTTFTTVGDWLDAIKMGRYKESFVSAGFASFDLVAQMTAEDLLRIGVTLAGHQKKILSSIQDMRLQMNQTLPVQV
Conditions: single concentration 1.0 μM, read-out: percent inhibition. An outline of the steps:
as §1

For experiment [7], the target named is PTK2B (FAK2) (Homo sapiens, UniProt Q14289). To be noted: single concentration 1.0 μM, read-out: percent inhibition. In short, it runs like this:
as §1

The target in experiment [8] is PDGFRB (PDGFR beta) (Homo sapiens, UniProt P09619). Conditions: single concentration 1.0 μM, read-out: percent inhibition. An outline of the steps:
as §1

Experiment [9] concerns the target LTK (TYK1) (Homo sapiens, UniProt P29376). To be noted: single concentration 1.0 μM, read-out: percent inhibition. An outline of the steps:
as §1

Experiment [10] has as its target TYK2 (Homo sapiens, UniProt P29597). To be noted: single concentration 1.0 μM, read-out: percent inhibition. An outline of the steps:
as §1

Experiment [11] has as its system FYN. To be noted: single concentration 1.0 μM. In short, it runs like this: as §1

Chain of PTK2B (FAK2) (Q14289 whole entry): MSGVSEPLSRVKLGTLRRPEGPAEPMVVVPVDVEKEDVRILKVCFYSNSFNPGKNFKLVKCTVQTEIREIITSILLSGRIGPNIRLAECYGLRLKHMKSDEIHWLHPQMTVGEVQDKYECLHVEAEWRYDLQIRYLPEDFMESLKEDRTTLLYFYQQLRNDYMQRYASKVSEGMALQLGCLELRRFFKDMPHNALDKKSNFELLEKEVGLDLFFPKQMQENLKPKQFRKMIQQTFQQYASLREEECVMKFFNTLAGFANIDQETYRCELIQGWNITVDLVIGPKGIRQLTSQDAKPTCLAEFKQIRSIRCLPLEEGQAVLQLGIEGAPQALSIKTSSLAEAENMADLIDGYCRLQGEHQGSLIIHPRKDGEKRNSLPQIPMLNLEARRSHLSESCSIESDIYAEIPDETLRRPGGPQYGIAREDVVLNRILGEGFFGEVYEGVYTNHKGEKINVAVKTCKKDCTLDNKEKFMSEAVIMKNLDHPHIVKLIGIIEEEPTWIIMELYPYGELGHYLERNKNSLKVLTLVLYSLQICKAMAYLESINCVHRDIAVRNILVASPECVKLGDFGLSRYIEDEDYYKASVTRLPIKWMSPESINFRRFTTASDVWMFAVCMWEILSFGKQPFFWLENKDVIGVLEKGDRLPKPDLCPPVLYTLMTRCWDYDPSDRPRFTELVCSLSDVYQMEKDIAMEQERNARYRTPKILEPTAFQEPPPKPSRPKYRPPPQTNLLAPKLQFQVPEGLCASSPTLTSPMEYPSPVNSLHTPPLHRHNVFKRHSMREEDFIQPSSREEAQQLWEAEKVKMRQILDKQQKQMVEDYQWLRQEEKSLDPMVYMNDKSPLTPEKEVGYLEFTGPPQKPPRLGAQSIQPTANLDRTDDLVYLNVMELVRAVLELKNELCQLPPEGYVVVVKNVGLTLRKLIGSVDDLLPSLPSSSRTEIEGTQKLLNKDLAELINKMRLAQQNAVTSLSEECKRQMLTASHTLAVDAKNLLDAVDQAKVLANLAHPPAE
Chain of TYK2 (P29597 whole entry): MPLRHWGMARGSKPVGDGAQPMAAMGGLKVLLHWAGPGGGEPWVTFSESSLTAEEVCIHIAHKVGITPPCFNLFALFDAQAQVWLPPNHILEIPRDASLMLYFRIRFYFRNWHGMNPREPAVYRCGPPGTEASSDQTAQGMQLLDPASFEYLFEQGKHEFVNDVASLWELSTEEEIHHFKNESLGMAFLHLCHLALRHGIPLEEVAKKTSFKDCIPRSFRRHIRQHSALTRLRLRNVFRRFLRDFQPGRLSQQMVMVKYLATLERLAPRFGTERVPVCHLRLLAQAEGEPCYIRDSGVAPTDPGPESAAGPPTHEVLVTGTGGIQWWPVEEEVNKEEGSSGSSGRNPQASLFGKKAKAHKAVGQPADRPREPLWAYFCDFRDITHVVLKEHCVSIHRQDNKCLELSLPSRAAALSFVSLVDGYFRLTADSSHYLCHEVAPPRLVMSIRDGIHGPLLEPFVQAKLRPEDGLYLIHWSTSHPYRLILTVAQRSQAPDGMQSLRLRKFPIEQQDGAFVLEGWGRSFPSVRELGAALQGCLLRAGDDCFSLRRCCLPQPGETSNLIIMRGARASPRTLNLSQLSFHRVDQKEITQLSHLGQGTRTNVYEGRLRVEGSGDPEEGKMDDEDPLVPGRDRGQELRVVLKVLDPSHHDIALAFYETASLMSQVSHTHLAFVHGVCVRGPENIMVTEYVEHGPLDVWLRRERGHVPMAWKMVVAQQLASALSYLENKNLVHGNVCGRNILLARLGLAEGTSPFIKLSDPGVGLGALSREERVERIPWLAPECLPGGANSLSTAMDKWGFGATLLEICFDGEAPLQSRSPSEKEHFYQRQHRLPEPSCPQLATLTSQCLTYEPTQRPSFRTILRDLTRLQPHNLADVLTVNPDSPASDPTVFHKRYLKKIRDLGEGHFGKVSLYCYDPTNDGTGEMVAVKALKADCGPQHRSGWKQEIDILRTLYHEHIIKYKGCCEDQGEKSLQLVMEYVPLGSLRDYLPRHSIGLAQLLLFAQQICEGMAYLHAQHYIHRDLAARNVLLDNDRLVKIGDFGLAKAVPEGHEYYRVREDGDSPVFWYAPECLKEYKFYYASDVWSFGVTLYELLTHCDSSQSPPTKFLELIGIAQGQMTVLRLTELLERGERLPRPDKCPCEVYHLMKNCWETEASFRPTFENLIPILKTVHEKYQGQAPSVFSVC
Chain of PIK3C2A (PI3K-C2 alpha) (O00443 whole entry): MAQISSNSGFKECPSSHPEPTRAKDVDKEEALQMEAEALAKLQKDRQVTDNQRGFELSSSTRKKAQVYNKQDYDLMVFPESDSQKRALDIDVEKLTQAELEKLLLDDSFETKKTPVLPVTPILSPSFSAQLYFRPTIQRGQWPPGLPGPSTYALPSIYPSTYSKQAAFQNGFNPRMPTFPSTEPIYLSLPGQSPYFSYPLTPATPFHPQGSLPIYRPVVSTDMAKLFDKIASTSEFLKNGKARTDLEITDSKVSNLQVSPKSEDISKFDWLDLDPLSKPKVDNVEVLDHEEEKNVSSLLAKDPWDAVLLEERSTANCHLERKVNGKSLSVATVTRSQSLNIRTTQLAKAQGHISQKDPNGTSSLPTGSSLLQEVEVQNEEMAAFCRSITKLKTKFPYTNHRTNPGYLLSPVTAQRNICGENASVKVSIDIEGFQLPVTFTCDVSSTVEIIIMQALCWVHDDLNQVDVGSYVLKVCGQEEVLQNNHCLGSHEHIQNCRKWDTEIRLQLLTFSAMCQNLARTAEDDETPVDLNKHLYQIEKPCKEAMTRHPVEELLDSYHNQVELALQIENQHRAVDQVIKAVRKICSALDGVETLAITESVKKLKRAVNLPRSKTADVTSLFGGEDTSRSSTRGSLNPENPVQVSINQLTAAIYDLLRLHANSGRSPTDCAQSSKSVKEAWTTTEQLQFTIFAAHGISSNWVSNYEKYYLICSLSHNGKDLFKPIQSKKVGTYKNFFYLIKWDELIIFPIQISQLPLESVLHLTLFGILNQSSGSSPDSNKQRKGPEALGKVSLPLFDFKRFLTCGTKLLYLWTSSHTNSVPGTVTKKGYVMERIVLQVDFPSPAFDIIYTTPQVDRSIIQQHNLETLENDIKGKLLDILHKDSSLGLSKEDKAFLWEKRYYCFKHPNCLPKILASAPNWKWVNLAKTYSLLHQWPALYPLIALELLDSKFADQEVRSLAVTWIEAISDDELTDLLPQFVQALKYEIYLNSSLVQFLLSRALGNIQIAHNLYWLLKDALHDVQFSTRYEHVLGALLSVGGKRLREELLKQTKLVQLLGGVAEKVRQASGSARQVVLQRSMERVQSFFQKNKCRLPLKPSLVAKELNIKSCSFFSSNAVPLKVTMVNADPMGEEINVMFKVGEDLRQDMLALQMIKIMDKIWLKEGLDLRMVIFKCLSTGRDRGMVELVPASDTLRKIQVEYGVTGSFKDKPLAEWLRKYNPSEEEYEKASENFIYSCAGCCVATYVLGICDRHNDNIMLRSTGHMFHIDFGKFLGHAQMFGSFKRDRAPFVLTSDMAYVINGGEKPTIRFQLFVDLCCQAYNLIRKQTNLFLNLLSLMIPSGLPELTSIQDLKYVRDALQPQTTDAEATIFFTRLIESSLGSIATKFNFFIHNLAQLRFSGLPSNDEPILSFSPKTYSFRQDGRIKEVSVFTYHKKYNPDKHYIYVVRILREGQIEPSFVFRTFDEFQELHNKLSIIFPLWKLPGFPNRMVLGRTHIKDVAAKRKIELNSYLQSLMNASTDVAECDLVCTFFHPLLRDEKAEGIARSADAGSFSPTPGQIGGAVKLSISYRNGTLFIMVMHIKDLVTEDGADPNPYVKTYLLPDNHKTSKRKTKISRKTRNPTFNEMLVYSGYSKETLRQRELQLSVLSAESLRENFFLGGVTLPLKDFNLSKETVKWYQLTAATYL
Chain of BRAF V599E (P15056 whole entry V600E): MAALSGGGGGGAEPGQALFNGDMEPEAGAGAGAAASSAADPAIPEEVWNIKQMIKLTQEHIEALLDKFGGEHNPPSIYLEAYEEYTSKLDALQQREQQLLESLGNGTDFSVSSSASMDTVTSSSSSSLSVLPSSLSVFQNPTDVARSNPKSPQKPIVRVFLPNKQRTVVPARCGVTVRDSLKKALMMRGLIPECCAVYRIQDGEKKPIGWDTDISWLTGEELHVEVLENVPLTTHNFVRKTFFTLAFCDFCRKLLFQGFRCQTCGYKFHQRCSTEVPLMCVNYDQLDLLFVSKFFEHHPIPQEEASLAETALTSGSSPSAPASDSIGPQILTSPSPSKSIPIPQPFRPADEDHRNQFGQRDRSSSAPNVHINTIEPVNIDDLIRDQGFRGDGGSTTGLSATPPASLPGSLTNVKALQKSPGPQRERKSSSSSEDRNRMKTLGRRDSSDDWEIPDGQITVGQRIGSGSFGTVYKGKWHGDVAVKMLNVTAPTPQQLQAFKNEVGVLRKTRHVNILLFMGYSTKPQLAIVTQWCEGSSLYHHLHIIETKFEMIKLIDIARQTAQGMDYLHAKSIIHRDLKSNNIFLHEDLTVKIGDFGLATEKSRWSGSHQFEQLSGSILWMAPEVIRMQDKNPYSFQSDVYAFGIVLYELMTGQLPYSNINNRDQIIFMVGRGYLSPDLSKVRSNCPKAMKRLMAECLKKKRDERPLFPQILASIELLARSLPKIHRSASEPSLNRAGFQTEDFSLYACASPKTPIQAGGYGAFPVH

In the case of `COc1cc2nccc(Oc3ccc(NC(=O)C4(C(=O)Nc5ccc(F)cc5)CC4)cc3)c2cc1OC` [Cabozantinib, reference compound], the inhibition at 1 µM in experiment [1] was found to be 17%; in experiment [2] it was 24%; in experiment [3] it was 1%; in [4], 55%; in experiment [5], 66%; in experiment [6], 54%. The inhibition at 1 µM was 71% in [7], 73% in [8], 20% in experiment [9] and 9% in [10].
For `COc1cc2nccc(Oc3ccc(NC(=O)C4(NC(=O)c5ccc(F)cc5)CC4)cc3F)c2cc1OC` [Cbo-02, N-(1-((4-((6,7-diMethoxyquinolin-4-yl)oxy)-3-fluorophenyl)carbamoyl)cyclopropyl)-4-fluorobenzamide], the inhibition at 1 µM in experiment [1] is 14%; in experiment [2] it was 1%; in experiment [3], 1%; in [4] it was 75%; in [5], -8%; in experiment [6], 4%. Moreover, the inhibition at 1 µM in experiment [7] was 9%; in experiment [8], 34%; in experiment [9] it was 50%; in experiment [10] it was 7%. Further, in experiment [11], the percent inhibition came out at 16%.
Consider `COc1cc2nccc(Oc3ccc(NC(=O)C4(NC(=O)c5ccc(F)cc5)CC4)cc3F)c2cc1Oc1ccc(N)cc1F` [Cbo-10], for which the inhibition at 1 µM in [1] is 55%; in [2], 2%; in experiment [3], -1%; in experiment [4] it was 92%; in experiment [5] it was 3%; in [6], 6%. In addition, the inhibition at 1 µM amounted to 56% in experiment [7], 52% in [8], 69% in [9] and 9% in [10]. Further, in experiment [11], the percent inhibition is 35%.
For `COc1cc2nccc(Oc3ccc(NC(=O)C4(NC(=O)c5ccc(F)cc5)CC4)cc3F)c2cc1Oc1c(F)cc(N)cc1F` [Cbo-14], the inhibition at 1 µM is 52% in [1]; -3% in experiment [2]; 1% in [3]; 89% in experiment [4]; 3% in experiment [5]; 6% in experiment [6]. For the same molecule, the inhibition at 1 µM in experiment [7] came out at 54%; in [8], 56%; in [9] it was 79%; in experiment [10] it was 16%. The molecule also displayed a percent inhibition in experiment [11] of 48%.
In the case of `COc1cc2nccc(Oc3ccc(NC(=O)C4(C(=O)Nc5ccc(F)cc5)CC4)cc3F)c2cc1Oc1ccc(N)cc1F` [Cbo-23], the inhibition at 1 µM in [1] was 32%; in experiment [2], 5%; in experiment [3], -9%; in [4], 55%; in experiment [5], 40%; in [6] it was 55%. Also, the inhibition at 1 µM stood at 100% in experiment [7], 56% in experiment [8], 55% in experiment [9] and 7% in experiment [10]. For the same molecule, the percent inhibition in [11] is on record as 51%.

A word on the inhibition: it is the relative decrease from the control value, in per cent.
